Literature values, collected in patent publication US8440723B2, “Metformin salts of salicylic acid and its congeners” (priority 2011, dated 2013).
Converted amounts (≈) assume the structure as drawn.

What was measured:
[1] = The Merck Index, Eleventh Edition
[2] = test system: patients with type 2 diabetes

volume of water in which 1 g is soluble ([1]; 1 g of substance) | water solubility [1] | solubility in water (in words) [1] | Structure (SMILES) | effect on blood glucose, HbA1c, triglycerides, free fatty acid and C-reactive protein [2]
460 mL | 2170 µg/mL (≈ 15.7 mM) |  | O=C(O)c1ccccc1O [salicylic acid] | 
 |  | practically insoluble in water | O=C(Oc1ccccc1C(=O)O)c1ccccc1O [salsalate, 2-(2-hydroxybenzoyl)oxybenzoic acid] | lowers blood glucose, HbA1c levels, triglycerides, free fatty acid and C-reactive protein
